Laboratory results as given in US20250367170A1, “TOPICAL ANGIOTENSIN II RECEPTOR BLOCKERS (ARBS) FOR TREATING EYE CONDITIONS” (The Cleveland Clinic Foundation, priority 2022, published 2025).

How the values were obtained:
[1] = system: collagen type IV; test: IHC collagen type IV intensity in anterior and posterior stroma after alkali burn; assay type: in vivo, New Zealand White rabbits; details: one month
Procedure: Multiplex immunohistochemistry (IHC) was performed using previously described methods^8 and primary antibodies (Table 7) confirmed by western blotting and IHC to recognize rabbit antigens or isotypic control antibodies (Thermo Fisher Scientific, Waltham, MA), and secondary fluorescent tagged antibodies (Table 7). The collagen type IV antibody (Cat. #AB769, Millipore, Temecula CA) was raised against purified human and bovine collagen type IV that had been affinity purified with human and bovine collagen type IV crosslinked to agarose and cross-absorbed by the manufacturer with human and bovine collagens type I, II, III, V and VI to eliminate cross-reactivity. This collagen type IV antibody was shown previously to bind rabbit collagen IV in IHC,^8,9 and recognizes the alpha-1/alpha-2 chains but not the alpha-3 to alpha-6 chains. The keratocan antibody is raised against peptide […]-OH (SEQ ID NO:1). This marker was used to identify keratocytes in situ. […] All corneas in each group had IHC for collagen type IV. Images from each cornea were converted to uniform 300 DPI, 875×568 pixel, files. […] The staining intensity within each box was determined with the analyze histogram function and the mean of three boxes was the intensity value in the anterior or posterior stroma for that cornea.

[2] = system: central corneal neovascularization (CNV); test: Corneal angiography for central corneal neovascularization after alkali burn; assay type: in vivo, New Zealand White rabbits; details: topical six times per day, one month, all four vehicle corneas positive
Procedure: Alkali injuries were produced in one eye of rabbits with previously published methods^10 using 1N sodium hydroxide (Sigma, St. Louis, MO) in balanced salt solution (BSS, 0.64% sodium chloride, 0.075% potassium chloride, 0.048% calcium chloride dihydrate, 0.03% magnesium chloride hexahydrate, 0.39% sodium acetate trihydrate, 0.17% sodium citrate dihydrate, pH 7.5, Alcon, Ft. Worth, TX) and a 5 mm diameter circular Whatman No. 1 filter paper (Cat #1001-6508, Fisher Scientific) wetted with 100 μl of 1N NaOH solution. Following the alkali burn injury, the cornea was irrigated profusely with BSS. Each injured cornea also received one drop of ciprofloxacin (Alcon, Ft. Worth, TX, USA) ten minutes after surgery and four times a day for one week and at least 15 minutes apart from the study medications.
Worth TX), at least 5 minutes apart, or 4) 50 μl of BSS.
All corneas had fluorescent angiography at the peak of dye passage in the cornea immediately after injection of 1.5 ml of 10% sodium fluorescein (McKesson, Irvine, TX) in the central ear vein with the slit lamp system and digital camera system using a “barrier filter” that only transmitted 520-530 nm, the peak of fluorescein emission, with broad illumination of the cornea, as previously described.^11

[3] = system: collagen type IV; test: IHC stromal collagen type IV pixels (ImageJ) one month after -9D PRK; assay type: in vivo, New Zealand white rabbits
Procedure: Rabbits were euthanized while under ketamine-xylazine general anesthesia with 100 mg/kg Beuthanasia (Shering-Plough, Kenilworth, NJ, USA) by intravenous injection followed by bilateral pneumothorax. The corneo-scleral rims were removed with sharp Westcott scissors (Fairfield, CT, USA) and 0.12 forceps (Storz, St Louis, MO, USA). The corneo-scleral rim was then centered in a 24-mm×24-mm×5-mm mold (Fisher Scientific, Pittsburgh, PA, USA) that was filled with optimal cutting temperature (OCT) compound (Sakura Finetek, Torrance, CA, USA) and quick frozen on dry ice. Blocks were stored at −80° C. until sectioning. Blocks were bisected at the center of the cornea and 10-pm-thick transverse sections were cut from the central cornea with a cryostat (HM 505M; Micron 5 GmbH, Walldorf, Germany). Three sections from each cornea were placed on each 25-mm×75-mm×1-mm Superfrost Plus microscope slide (Fisher Scientific). Slides with sections were maintained at −20° C. prior to immunohistochemistry (IHC).
All images were converted to 300 DPI 900 pixel width×672 pixel height images with Photoshop 22.1.1 (Adobe, San Jose, CA). The mean pixels of stromal α-SMA or stromal collagen type IV were determined in a 900-pixel wide×235-pixel high rectangle (for either α-SMA or collagen type IV quantitation) with ImageJ in three sections for each cornea using the image panels showing only the color of interest. […]

[4] = system: α-SMA-positive myofibroblasts; test: IHC for α-SMA-positive myofibroblasts, area and intensity (ImageJ) after alkali burn; assay type: in vivo, New Zealand White rabbits; details: one month
Procedure: One month after exposure and topical treatment, rabbits were euthanized after ketamine-xylazine general anesthesia with 100 mg/kg Beuthanasia (Shering-Plough, Kenilworth, NJ) by intravenous injection and bilateral pneumothorax. The corneo-scleral rims of eyes were removed with sharp Westcott scissors (Fairfield, CT, USA) and 0.12 forceps (Storz, St. Louis, MO). The cornea was centered in a 24×24×5 mm mold (Fisher Scientific, Pittsburgh, PA, USA) that was filled with OCT compound (Sakura Finetek, Torrance, CA, USA) and quick frozen on dry ice. Blocks were stored at −80° C. until sectioning. […]
The area of the α-SMA-positive stroma in mm^2 and the total α-SMA opacity in pixels were quantitated using standardized images obtained with a 10× objective on a Leica DM6B upright microscope equipped with an automated stage and Leica 7000 T camera using the LAS X software (Leica Microsystems, GmbH, Wetzlar, Germany). The means of three central corneal sections were analyzed from each cornea to provide the area of α-SMA-positive stroma and the total α-SMA opacity. […] In these same sections for each cornea, the total α-SMA-positive intensity in pixels was also determined with ImageJ, similarly by using the summation if separate α-SMA-positive areas were present.

CCCCc1nc(Cl)c(CO)n1Cc1ccc(-c2ccccc2-c2nn[nH]n2)cc1 [losartan]
COL IV staining intensity in the posterior stroma vs vehicle [1]: significantly different
mean intensity units of collagen type IV in the anterior stroma vs vehicle [1]: significantly decreased
corneas (of four) that developed central corneal neovascularization [2]: two
collagen type IV detected in the underlying anterior stroma (IHC) compared with vehicle [3]: far smaller amounts
total α-SMA area vs vehicle control group [4]: trend towards the losartan group being significantly different
